# Reference: US10206388B2, “Formulation component” (SYNGENTA LIMITED, priority 2011, dated 2019)
# Experiments:
# Assay type in all cases: in vivo
# [1] = test system: Abutilon theophrasti (ABUTH); assay: Glasshouse weed test, fomesafen with adjuvants; conditions: Table 8, Example 6: fomesafen 60 or 120 g/ha; adjuvant 0.2% v/v; mean over two rates, three replicates, 7, 14 and 20 days
# Procedure: (§1) The aromatic ester Finsolv® TN (C12-C15 alkyl benzoate) was tested in a glasshouse against four weed species using the herbicide fomesafen. An agrochemical composition was prepared containing 0.2% v/v of the adjuvant in a track sprayer and was applied at a volume of 200 liters per hectare. Fomesafen was applied at either 60 or 120 grams of pesticide per hectare on each of the weed species. The weed species and their growth stage at spraying were Chenopodium album (CHEAL; growth stage 14), Abutilon theophrasti (ABUTH; growth stage 12), Setaria viridis (SETVI; growth stage 13), and Xanthium strumarium (XANST; growth stage 12).
# (§2) Each spray test was replicated three times. The efficacy of the herbicide was assessed visually and expressed as a percentage of the leaf area killed. Samples were assessed at time periods of 7, 14 and 20 days following application. The results shown in Table 8 below are mean averages over the two rates of fomesafen, three replicates and the three assessment timings, and are compared to the efficacy of fomesafen in the absence of an adjuvant, and fomesafen in the presence of the commercially available adjuvant Turbocharge®.
# [2] = test system: Chenopodium album (CHEAL); assay: Glasshouse weed test, fomesafen with adjuvants; conditions: Table 8, Example 6: fomesafen 60 or 120 g/ha; adjuvant 0.2% v/v; mean over two rates, three replicates, 7, 14 and 20 days
# Procedure: as §1, §2
# Setaria viridis (SETVI) = assay: Glasshouse weed test, fomesafen with adjuvants; conditions: Table 8, Example 6: fomesafen 60 or 120 g/ha; adjuvant 0.2% v/v; mean over two rates, three replicates, 7, 14 and 20 days
# Procedure: as §1, §2
# [3] = test system: Xanthium strumarium (XANST); assay: Glasshouse weed test, fomesafen with adjuvants; conditions: Table 8, Example 6: fomesafen 60 or 120 g/ha; adjuvant 0.2% v/v; mean over two rates, three replicates, 7, 14 and 20 days
# Procedure: as §1, §2
# [4] = test system: four weed species (CHEAL, ABUTH, SETVI, XANST); assay: Glasshouse weed test, fomesafen with adjuvants, mean across species; conditions: adjuvant 0.2% v/v, mean over two rates
# Procedure: as §1, §2
# A second experiment was conducted to assess the efficacy of Finsolv® TN as an adjuvant in compositions of fomesafen. This was carried out as outlined above, with the following change: samples were assessed at 6, 14 and 20 days post application.
# The results shown in Table 9 below are mean averages over the two rates of fomesafen, three replicates, three assessment timings, and four weed species and are compared to the efficacy of fomesafen in the absence of an adjuvant, and fomesafen in the presence of the commercially available tank-mix adjuvant, Turbocharge®.
# An agrochemical composition was prepared containing 0.2% v/v of the adjuvant in a track sprayer and was applied at a volume of 200 liters per hectare. […]
# Each spray test was replicated three times. The efficacy of the herbicide was assessed visually and expressed as a percentage of the leaf area killed. Samples were assessed at time periods of 7, 14 and 20 days following application. […]
# [5] = test system: four weed species (POLCO, BRAL, DIGSA, COMBE); assay: as above; conditions: mean over two rates, three replicates, 14 and 21 days
# Procedure: An agrochemical composition was prepared containing 0.2% v/v of the adjuvant in a track sprayer and was applied at a volume of 200 liters per hectare. The adjuvant oils were emulsified using a small amount of the surfactant Pluronic® PE 10500, which was present in the composition at a concentration of 0.02% v/v. Fomesafen was applied at either 60 or 120 grams of pesticide per hectare on each of the weed species. The weed species and their growth stage at spraying were Polygonum convolvulus (POLCO; growth stage 13-14), Brachiaria plantaginea (BRAL; growth stage 13-14), Digitaria sanguinalis (DIGSA; growth stage 14), and Commelina benghalensis (COMBE; growth stage 13-14).
# Each spray test was replicated three times. The efficacy of the herbicide was assessed visually and expressed as a percentage of the leaf area killed. Samples were assessed at time periods of 14 and 21 days following application. The results shown in Table 20 below are mean averages over the two rates of fomesafen, three replicates the two assessment timings, and the four weed species, and are compared to the efficacy of fomesafen in the absence of an adjuvant, and fomesafen in the presence of the commercially available adjuvant Turbocharge®.
# An agrochemical composition was prepared containing either 0.2, 0.1, 0.05 or 0.025% v/v of the adjuvant in a track sprayer and was applied at a volume of 200 liters per hectare. The commercial adjuvant Turbocharge® was applied at 0.5% v/v. Fomesafen was applied at either 60 or 120 grams of pesticide per hectare on each of the weed species. The weed species and their growth stage at spraying were Polygonum convolvulus (POLCO; growth stage 13-14), Brachiaria plantaginea (BRAL; growth stage 12-13), Digitaria sanguinalis (DIGSA; growth stage 13), and Commelina benghalensis (COMBE; growth stage 12).
# Each spray test was replicated three times. The efficacy of the herbicide was assessed visually and expressed as a percentage of the leaf area killed. Samples were assessed at time periods of 14 and 21 days following application. The results shown in Table 24 below are mean averages over the two rates of fomesafen, three replicates the two assessment timings, and the four weed species, and are compared to the efficacy of fomesafen in the absence of an adjuvant, and fomesafen in the presence of the commercially available adjuvant Turbocharge®. […]
# Each spray test was replicated three times. The efficacy of the herbicide was assessed visually and expressed as a percentage of the leaf area killed. Samples were assessed at time periods of 14 and 21 days following application. […]
smiles,measurement,setting,value
"CS(=O)(=O)NC(=O)c1cc(Oc2ccc(C(F)(F)F)cc2Cl)ccc1[N+](=O)[O-] [Fomesafen, fomesafen]",Mean percentage kill ABUTH,[1],19.7 C %
same,Mean percentage kill CHEAL,[2],34.7 C %
same,Mean percentage kill SETVI,Setaria viridis (SETVI),10.3 B %
same,Mean percentage kill XANST,[3],59.2 C %
same,"Mean percentage kill, Mean across species","[4]; Table 8, Example 6: fomesafen 60 or 120 g/ha, three replicates, 7, 14 and 20 days",31.0 C %
same,"Mean percentage kill, Mean across species","[4]; Table 9, Example 6 second experiment: fomesafen 60 or 120 g/ha, three replicates, 6, 14 and 20 days, four weed species",44.9 B %
same,"Mean percentage kill, Mean across species","[4]; Table 15, Example 11: fomesafen 60 or 120 g/ha, three replicates, 7, 14 and 20 days, four weed species",37.7 C %
same,"Mean percentage kill, Mean across species","[5]; Table 20, Example 16: fomesafen 60 or 120 g/ha, adjuvant 0.2% v/v emulsified with Pluronic PE 10500 0.02% v/v",24.3D %
same,"Mean percentage kill, Mean across species","[5]; Table 24, Example 20: absence of an adjuvant, fomesafen 60 or 120 g/ha",17.8E %
same,"Mean percentage kill, Mean across species","[5]; Table 28, Example 25: fomesafen 60 or 120 g/ha, adjuvant 0.2% v/v",32.8C %
same,"Mean percentage kill, Mean across species","[5]; Table 34, Example 34: fomesafen 60 or 120 g/ha, adjuvant 0.2% v/v",17.8B %
